Data as given in patent US9751869B2, “LXR modulators” (BRISTOL-MYERS SQUIBB COMPANY, priority 2013, dated 2017).

Biological target: T1, LXRβ (Homo sapiens, UniProt P55055)
T1 construct: Co-transfection expression plasmids, comprising full-length LXRα (pCMX-h LXRα or LXRβ (pCMX-hLXRβ)); expressed in transfected cells; host or cells: CV-1 African green monkey kidney cells, transient transfection with pCMX-hLXRβ
T1 sequence (P55055 1-460): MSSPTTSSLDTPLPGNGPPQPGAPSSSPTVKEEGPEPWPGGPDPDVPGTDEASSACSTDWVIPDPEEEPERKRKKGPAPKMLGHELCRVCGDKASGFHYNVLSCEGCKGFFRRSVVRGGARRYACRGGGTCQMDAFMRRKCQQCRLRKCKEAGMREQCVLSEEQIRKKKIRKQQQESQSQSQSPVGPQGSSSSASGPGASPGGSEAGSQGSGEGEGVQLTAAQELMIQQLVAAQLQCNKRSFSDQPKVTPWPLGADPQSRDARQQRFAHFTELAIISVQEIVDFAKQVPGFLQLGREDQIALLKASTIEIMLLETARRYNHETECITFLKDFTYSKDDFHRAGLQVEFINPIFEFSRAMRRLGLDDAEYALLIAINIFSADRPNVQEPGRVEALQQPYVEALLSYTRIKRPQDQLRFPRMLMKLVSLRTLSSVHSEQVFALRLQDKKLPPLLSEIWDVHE
T1 sequence (P19793 1-462 partner): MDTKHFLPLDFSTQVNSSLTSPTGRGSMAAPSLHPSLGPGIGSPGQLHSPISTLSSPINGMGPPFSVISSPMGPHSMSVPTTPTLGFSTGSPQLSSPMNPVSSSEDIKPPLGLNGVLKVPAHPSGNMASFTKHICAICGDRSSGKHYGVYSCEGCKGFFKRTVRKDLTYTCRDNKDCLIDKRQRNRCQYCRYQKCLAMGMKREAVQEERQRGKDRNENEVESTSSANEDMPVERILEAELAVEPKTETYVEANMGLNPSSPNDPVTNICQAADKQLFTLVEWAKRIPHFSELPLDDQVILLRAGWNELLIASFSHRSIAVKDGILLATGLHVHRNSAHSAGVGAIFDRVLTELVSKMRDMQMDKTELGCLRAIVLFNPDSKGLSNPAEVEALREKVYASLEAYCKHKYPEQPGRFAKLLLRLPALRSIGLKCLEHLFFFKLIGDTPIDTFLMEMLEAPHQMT
Test: LXR/LXRE co-transfection assay (luciferase reporter) in CV-1 cells, LXRβ
Type: cell-based
Conditions: for EC50: CV-1 cells transfected with pCMX-hLXRβ and LXREx1-Tk-Luciferase, 20 hours incubation, read-out: LXRbeta agonism EC50; for Emax: CV-1 cells, relative to maximum response of high control N-(3-((4-fluorophenyl)-(naphthalene-2-sulfonyl)amino)propyl)-2,2-dimethylpropionamide, read-out: LXRbeta % EFFICACY
Method in brief: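 Luciferase read-out after 20 h compound treatment at 37 °C of CV-1 cells carrying transfected hLXRβ plus one-copy LXRE reporter, endogenous RXR partnering. Sigmoidal fit of 10-point half-log curves (4 wells each) gave EC50; % efficacy versus maximal response of the propionamide reference agonist.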

EC50 | Emax | Structure (SMILES)
71 nM | 80% | Cc1nc(-c2ccc(OC(F)(F)F)cc2)c(-c2cc(-c3cc(F)c(CO)c(S(C)(=O)=O)c3)ccc2-n2ccc(C#N)n2)o1 [Example 319, 1-(3′-fluoro-4′-(hydroxymethyl)-3-(2-methyl-4-(4-(trifluoromethoxy)phenyl)oxazol-5-yl)-5′-(methylsulfonyl)biphenyl-4-yl)-1H-pyrazole-3-carbonitrile]
45 nM | 69% | Cc1nc(-c2cc(-c3cccc(S(C)(=O)=O)c3)ccc2-n2ccc(C(F)(F)F)n2)c(-c2cc(F)c(OC(F)F)c(F)c2)o1 [Example 409, 5-(4-(difluoromethoxy)-3,5-difluorophenyl)-2-methyl-4-(3′-(methylsulfonyl)-4-(3-(trifluoromethyl)-1H-pyrazol-1-yl)biphenyl-3-yl)oxazole]
2860 nM | 26% | Cc1cc(C(C)(F)F)nn1-c1ccc(-c2cccc(S(C)(=O)=O)c2)cc1-n1nncc1-c1ccc(OC(F)(F)F)cc1 [Example 304, 1-{4-[3-(1,1-difluoroethyl)-5-methyl-1H-pyrazol-1-yl]-3′-(methylsulfonyl)biphenyl-3-yl}-5-{4-[(trifluoromethyl)oxy]phenyl}-1H-1,2,3-triazole]
32 nM | 101% | Cc1cc(C(F)(F)F)nn1-c1ccc(-c2cc(F)c(CO)c(S(C)(=O)=O)c2)cc1-n1nncc1-c1ccc(OC(F)(F)F)cc1 [Example 301, [3-fluoro-5-(methylsulfonyl)-4′-[5-methyl-3-(trifluoromethyl)-1H-pyrazol-1-yl]-3′-(5-{4-[(trifluoromethyl)oxy]phenyl}-1H-1,2,3-triazol-1-yl)biphenyl-4-yl]methanol]
60 nM | 64% | CS(=O)(=O)c1cc(-c2ccc(-n3ccc(C(F)(F)F)n3)c(-c3oc(C4CC4)nc3-c3ccc(OC(F)(F)F)cc3)c2)cc(F)c1CO [Example 339, (3′-(2-cyclopropyl-4-(4-(trifluoromethoxy)phenyl)oxazol-5-yl)-3-fluoro-5-(methylsulfonyl)-4′-(3-(trifluoromethyl)-1H-pyrazol-1-yl)biphenyl-4-yl)methanol]
34 nM | 86% | Cc1nc(-c2cc(-c3cc(F)c(CO)c(S(C)(=O)=O)c3)ccc2-n2nc(C(F)(F)F)cc2C)c(-c2ccc(OC(F)(F)F)cc2)o1 [Example 386, (3-fluoro-4′-(5-methyl-3-(trifluoromethyl)-1H-pyrazol-1-yl)-3′-(2-methyl-5-(4-(trifluoromethoxy)phenyl)oxazol-4-yl)-5-(methylsulfonyl)biphenyl-4-yl)methanol]
1650 nM | 29% | Cc1nc(-c2ccc(OC(F)(F)F)cc2)c(-c2cc(-c3cccc(S(C)(=O)=O)c3)ccc2-n2ccc(C(N)=O)n2)o1 [Example 308, 1-(3-(2-methyl-4-(4-(trifluoromethoxy)phenyl)oxazol-5-yl)-3′-(methylsulfonyl)biphenyl-4-yl)-1H-pyrazole-3-carboxamide]
15 nM | 73% | Cc1nc(-c2cc(-c3cc(F)c(CO)c(S(C)(=O)=O)c3)ccc2-n2nc(C(F)(F)F)cc2C)c(-c2ccc(OC(F)F)cc2)o1 [Example 384, (3′-(5-(4-(difluoromethoxy)phenyl)-2-methyloxazol-4-yl)-3-fluoro-4′-(5-methyl-3-(trifluoromethyl)-1H-pyrazol-1-yl)-5-(methylsulfonyl)biphenyl-4-yl)methanol]
5 nM | 64% | Cc1nc(-c2ccc3c(c2)OC(F)(F)O3)c(-c2cc(-c3ccc(CO)c(S(C)(=O)=O)c3)ccc2-n2nc(C(F)(F)F)cc2C)o1 [Example 330, (3′-(4-(2,2-difluorobenzo[d][1,3]dioxol-5-yl)-2-methyloxazol-5-yl)-4′-(5-methyl-3-(trifluoromethyl)-1H-pyrazol-1-yl)-3-(methylsulfonyl)biphenyl-4-yl)methanol]
37 nM | 90% | Cc1nc(-c2ccc3c(c2)OC(F)(F)O3)c(-c2cc(-c3cccc(S(C)(=O)=O)c3)ccc2-n2nc(C(F)(F)F)cc2Cl)o1 [Example 346, 5-(4-(5-chloro-3-(trifluoromethyl)-1H-pyrazol-1-yl)-3′-(methylsulfonyl)biphenyl-3-yl)-4-(2,2-difluorobenzo[d][1,3]dioxol-5-yl)-2-methyloxazole]

The remaining lines, values behind:

Structure (SMILES) | EC50 | Emax
Cc1nc(-c2ccc3c(c2)OC(F)(F)O3)c(-c2cc(-c3cc(F)c(CO)c(S(C)(=O)=O)c3)ccc2-c2cc(C#N)nn2C)o1 [Example 122, 5-(3-(4-(2,2-difluorobenzo[d][1,3]dioxol-5-yl)-2-methyloxazol-5-yl)-3′-fluoro-4′-(hydroxymethyl)-5′-(methylsulfonyl)-[1,1′-biphenyl]-4-yl)-1-methyl-1H-pyrazole-3-carbonitrile] | 63 nM | 22%
Cc1nc(-c2ccc3c(c2)OC(F)(F)O3)c(-c2cc(-c3cccc(S(C)(=O)=O)c3)ccc2-c2cc(C(C)(F)F)nn2C)o1 [Example 94, 4-(2,2-difluorobenzo[d][1,3]dioxol-5-yl)-5-(4-(3-(1,1-difluoroethyl)-1-methyl-1H-pyrazol-5-yl)-3′-(methylsulfonyl)biphenyl-3-yl)-2-methyloxazole] | 32 nM | 87%
Cn1nc(C(F)(F)C(=O)NC(C)(C)CO)cc1-c1ccc(-c2cccc(S(C)(=O)=O)c2)cc1-n1nncc1-c1ccc(OC(F)(F)F)cc1 [Example 28, 2,2-difluoro-N-(1-hydroxy-2-methylpropan-2-yl)-2-(1-methyl-5-(3′-(methylsulfonyl)-3-(5-(4-(trifluoromethoxy)phenyl)-1H-1,2,3-triazol-1-yl)-[1,1′-biphenyl]-4-yl)-1H-pyrazol-3-yl)acetamide] | 501 nM | 107%
Cn1nc(C(F)(F)C(N)=O)cc1-c1ccc(-c2cc(F)c(CO)c(S(C)(=O)=O)c2)cc1-n1nncc1-c1ccc(OC(F)(F)F)cc1 [Example 8, 2,2-difluoro-2-(5-(3′-fluoro-4′-(hydroxymethyl)-5′-(methylsulfonyl)-3-(5-(4-(trifluoromethoxy)phenyl)-1H-1,2,3-triazol-1-yl)biphenyl-4-yl)-1-methyl-1H-pyrazol-3-yl)acetamide] | 2320 nM | 79%
Cn1nc(C(F)(F)CO)cc1-c1ccc(-c2cccc(S(C)(=O)=O)c2)cc1-n1nncc1-c1ccc(OC(F)(F)F)cc1 [Example 25, 2,2-difluoro-2-(1-methyl-5-(3′-(methylsulfonyl)-3-(5-(4-(trifluoromethoxy)phenyl)-1H-1,2,3-triazol-1-yl)-[1,1′-biphenyl]-4-yl)-1H-pyrazol-3-yl)ethanol] | 1020 nM | 78%
Cc1nc(-c2ccc(OC(F)(F)F)cc2)c(-c2cc(-c3cc(F)c(CO)c(S(C)(=O)=O)c3)ccc2-c2cc(C(F)(F)F)nn2C)o1 [Example 93, (3-fluoro-4′-(1-methyl-3-(trifluoromethyl)-1H-pyrazol-5-yl)-3′-(2-methyl-4-(4-(trifluoromethoxy)phenyl)oxazol-5-yl)-5-(methylsulfonyl)biphenyl-4-yl)methanol] | 16 nM | 93%
Cn1nc(C(F)(F)CNCCO)cc1-c1ccc(-c2cccc(S(C)(=O)=O)c2)cc1-n1nncc1-c1ccc(OC(F)(F)F)cc1 [Example 29, 2-((2,2-difluoro-2-(1-methyl-5-(3′-(methylsulfonyl)-3-(5-(4-(trifluoromethoxy)phenyl)-1H-1,2,3-triazol-1-yl)-[1,1′-biphenyl]-4-yl)-1H-pyrazol-3-yl)ethyl)amino)ethanol] | 1230 nM | 80%
CC(O)C(F)(F)c1cc(-c2ccc(-c3cc(F)c(CO)c(S(C)(=O)=O)c3)cc2-n2nncc2-c2ccc(OC(F)(F)F)cc2)n(C)n1 (stereo not drawn) [Example 6, 1,1-difluoro-1-(5-(3′-fluoro-4′-(hydroxymethyl)-5′-(methylsulfonyl)-3-(5-(4-(trifluoromethoxy)phenyl)-1H-1,2,3-triazol-1-yl)biphenyl-4-yl)-1-methyl-1H-pyrazol-3-yl)propan-2-ol] | 252 nM | 84%
